Data: patent US20090203908A1, “Activator for Peroxisome Proliferator-Activated Receptor” (NIPPON CHEMIPHAR CO., LTD., priority 2005, published 2009)
Read-outs that look alike come from different tables or passages of the source.

Legend:
hPPAR α (LBD) = target: T1, hPPAR α (LBD) (Homo sapiens, UniProt Q07869); assay: PPAR activating effect, GAL4-hPPARα (LBD) luciferase reporter in CV-1 cells
T1 sequence (Q07869 239-466 limits assumed): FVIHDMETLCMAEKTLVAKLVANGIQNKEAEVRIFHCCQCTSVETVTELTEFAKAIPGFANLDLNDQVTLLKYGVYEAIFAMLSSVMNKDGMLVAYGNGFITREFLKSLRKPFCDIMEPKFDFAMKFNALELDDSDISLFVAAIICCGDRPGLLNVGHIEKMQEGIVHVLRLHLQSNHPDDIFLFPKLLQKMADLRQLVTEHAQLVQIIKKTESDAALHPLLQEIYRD
Protocol: (§1) For determining PPAR activating effects of the compounds according to the invention were measured by the following method:
(§2) After gene transfer utilizing a lipofection reagent DMRIE-C or Lipofectamin 2000 (Invitrogen), it is incubated for 42 hours in the presence of the test compound. Then, the luciferase activity and β-GAL activity are measured on the soluble cells. The luciferase activity is calibrated by the β-GAL activity.
(§3) The PPAR activating effects of test compounds (compounds of Examples) were measured by the following method:
(§4) After gene transfer utilizing a lipofection reagent DMRIE-C or Lipofectamin 2000 (Invitrogen), it is incubated for approx. 40 hours in the presence of the test compound. Then, the luciferase activity and β-GAL activity are measured on the soluble cells. The luciferase activity is calibrated by the β-GAL activity. […] Then, EC50 was obtained.

hPPAR γ (LBD) = target: T2, hPPAR γ (LBD) (Homo sapiens, UniProt P37231); assay: PPAR activating effect, GAL4-hPPARγ (LBD) luciferase reporter in CV-1 cells
T2 sequence (P37231 238-503 limits assumed): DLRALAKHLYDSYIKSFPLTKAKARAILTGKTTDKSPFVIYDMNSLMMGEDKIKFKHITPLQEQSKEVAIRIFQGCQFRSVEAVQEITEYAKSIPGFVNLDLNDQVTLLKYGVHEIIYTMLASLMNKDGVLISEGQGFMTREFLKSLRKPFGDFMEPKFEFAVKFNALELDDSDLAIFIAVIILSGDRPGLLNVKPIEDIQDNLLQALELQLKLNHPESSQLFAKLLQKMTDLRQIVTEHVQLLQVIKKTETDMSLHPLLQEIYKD
Protocol: as §1, §2, §3, §4

hPPAR δ (LBD) = target: T3, hPPAR δ (LBD) (Homo sapiens, UniProt Q03181); assay: PPAR activating effect, GAL4-hPPARδ (LBD) luciferase reporter in CV-1 cells
T3 sequence (Q03181 211-439 limits assumed): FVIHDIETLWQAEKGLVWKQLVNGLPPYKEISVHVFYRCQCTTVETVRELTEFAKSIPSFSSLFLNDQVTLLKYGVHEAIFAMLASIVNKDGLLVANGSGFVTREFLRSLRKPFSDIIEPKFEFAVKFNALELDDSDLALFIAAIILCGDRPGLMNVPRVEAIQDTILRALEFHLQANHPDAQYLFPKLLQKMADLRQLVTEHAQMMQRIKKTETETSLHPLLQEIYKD
Protocol: as §1, §2, §3, §4

hPPAR α or γ or δ (LBD) = assay: PPAR activating effect, overall assessment over the subtypes (GAL4-hPPAR luciferase reporter in CV-1 cells); conditions: summary of Table 17, PPARα and PPARγ
Protocol: as §1, §2, §3, §4

EC50 (hPPAR α (LBD)) [nM]	EC50 (hPPAR γ (LBD)) [nM]	EC50 (hPPAR δ (LBD)) [nM]	Compound	α/γ dual agonist effects (in words) (hPPAR α or γ or δ (LBD))	EC50 (hPPAR δ (LBD); read-out: PPAR activity: EC50, δ, CV-1 cells, approx. 40 hours incubation, 100% control GW-501516 10^−7 M) [nM]	PPARα agonist effect (in words) (hPPAR α (LBD); summary of Table 17)
92	300	3000	Cc1cc(C(=O)CCc2sc(-c3ccc(C(F)(F)F)cc3)nc2CN2CCN(c3ccc(C(C)C)cc3)CC2)ccc1OC(C)(C)C(=O)O [Example 11, 2-[4-[3-[4-[4-(4-Isopropylphenyl)piperazin-1-ylmethyl]-2-(4-trifluoromethylphenyl)-5-thiazolyl]propionyl]-2-methylphenoxy]-2-methylpropionic Acid]	good α/γ dual agonist effects	–	–
180	290	2300	Cc1cc(C(=O)CCc2sc(-c3ccc(C(F)(F)F)cc3)nc2CN2CCN(c3ccc(OC(C)C)cc3)CC2)ccc1OC(C)(C)C(=O)O [Example 16, 2-[4-[3-[4-[4-(4-Isopropyloxyphenyl)piperazin-1-ylmethyl]-2-(4-trifluoromethylphenyl)-5-thiazolyl]propionyl]-2-methylphenoxy]-2-methylpropionic Acid]	good α/γ dual agonist effects	–	–
290	750	6300	Cc1cc(C(=O)CCc2sc(-c3ccc(C(F)(F)F)cc3)nc2CN2CCN(c3ccc(OC(F)(F)F)cc3)CC2)ccc1OC(C)(C)C(=O)O [Example 15, 2-[4-[3-[4-[4-(4-Trifluoromethoxyphenyl)piperazin-1-ylmethyl]-2-(4-trifluoromethylphenyl)-5-thiazol-yl]propionyl]-2-methylphenoxy]-2-methylpropionic Acid]	–	–	–
940	1700	3800	COc1ccc(N2CCN(Cc3nc(-c4ccc(C(F)(F)F)cc4)sc3CCC(=O)c3ccc(OC(C)(C)C(=O)O)c(C)c3)CC2)cc1OC [Example 12, 2-[4-[3-[4-[4-(3,4-Dimethoxyphenyl)piperazin-1-ylmethyl]-2-(4-trifluoromethylphenyl)-5-thiazolyl]propionyl]-2-methylphenoxy]-2-methylpropionic Acid]	–	–	–
330	280	1100	CCOc1ccc(N2CCN(Cc3nc(-c4ccc(C(F)(F)F)cc4)sc3CCC(=O)c3ccc(OC(C)(C)C(=O)O)c(C)c3)CC2)cc1 [Example 13, 2-[4-[3-[4-[4-(4-Ethoxyphenyl)piperazin-1-yl-methyl]-2-(4-trifluoromethylphenyl)-5-thiazolyl]propionyl]-2-methylphenoxy]-2-methylpropionic Acid]	–	–	–

The next lines start with the molecule.

Compound	EC50 (hPPAR α (LBD)) [nM]	EC50 (hPPAR γ (LBD)) [nM]	EC50 (hPPAR δ (LBD)) [nM]	α/γ dual agonist effects (in words) (hPPAR α or γ or δ (LBD))	EC50 (hPPAR δ (LBD); read-out: PPAR activity: EC50, δ, CV-1 cells, approx. 40 hours incubation, 100% control GW-501516 10^−7 M) [nM]	PPARα agonist effect (in words) (hPPAR α (LBD); summary of Table 17)
COc1ccc(CC2SC(=O)NC2=O)cc1C(=O)NCc1ccc(C(F)(F)F)cc1 (stereo not shown) [KRP-297, reference compound]	–	–	–	–	13900	–
COc1cccc(N2CCN(Cc3nc(-c4ccc(C(F)(F)F)cc4)sc3CCC(=O)c3ccc(OC(C)(C)C(=O)O)c(C)c3)CC2)c1 [Example 4, 2-[4-[3-[4-[4-(3-Methoxyphenyl)piperazin-1-yl-methyl]-2-(4-trifluoromethylphenyl)-5-thiazolyl]propionyl]-2-methylphenoxy]-2-methylpropionic Acid]	210	1300	4400	–	–	–
Cc1ccc(N2CCN(Cc3nc(-c4ccc(C(F)(F)F)cc4)sc3CCC(=O)c3ccc(OC(C)(C)C(=O)O)c(C)c3)CC2)cc1 [Example 6, 2-[4-[3-[4-[4-(4-Methylphenyl)piperazin-1-yl-methyl]-2-(4-trifluoromethylphenyl)-5-thiazolyl]propionyl]-2-methylphenoxy]-2-methylpropionic Acid]	550	490	4900	–	–	–
Cc1cc(C(=O)CCc2sc(-c3ccc(C(F)(F)F)cc3)nc2CN2CCN(c3ccc(C(F)(F)F)cc3)CC2)ccc1OC(C)(C)C(=O)O [Example 5, 2-[4-[3-[4-[4-(4-Trifluoromethylphenyl)-piperazin-1-ylmethyl]-2-(4-trifluoromethylphenyl)-5-thiazolyl]propionyl]-2-methylphenoxy]-2-methylpropionic Acid]	90	3200	5200	–	–	strong and selective PPARα agonist effect
COc1ccc(N2CCN(Cc3nc(-c4ccc(C(F)(F)F)cc4)sc3CCC(=O)c3ccc(OC(C)(C)C(=O)O)c(C)c3)CC2)cc1 [Example 3, 2-[4-[3-[4-[4-(4-Methoxyphenyl)piperazin-1-yl-methyl]-2-(4-trifluoromethylphenyl)-5-thiazolyl]propionyl]-2-methylphenoxy]-2-methylpropionic Acid]	> 10000	660	920	–	–	–
